Values joined by “and” are separate entries in the source; they are usually repeats but may differ in a detail not shown here. Equal entries are not always repeated.

One assay has as its system MBP specific T-cells. The assay can be described thus: Treatment of supernatants with anti-cytokine antibodies. In kind it is cell-based, Lewis rats. Conditions: added to spleen cells of MBP-fed animals stimulated with MBP; FIG. 2. The method, then:
In Vitro Suppression Of Proliferative Responses By Supernatants. Spleen cells were removed 7-14 days after the last feeding and a single cell suspension prepared by pressing the spleens through a stainless steel mesh. For preparation of supernatants, spleen cells at a concentration of 5×10^6 cells/ml were stimulated in vitro with MBP (50 μg/ml) in 10 ml of proliferation medium. Proliferation medium consisted of RPMI 1640 (GIBCO, Grand Island, N.Y.) supplemented with 2×10^−5 M 2-mercaptoethanol, 1% sodium pyruvate, 1% penicillin and streptomycin, 1% glutamine, 1% HEPES buffer, 1% nonessential amino acids and 1% autologous serum. Supernatants were harvested at 24 hours and 100 μl added to 2.5×10^4 MBP specific T-cells, raised and maintained as previously described (Ben-Nun, A. et al., Eur. J. Immunol. 11:195-199, 1981), cultured with 5×10^5 irradiated (2500 rad) thymocytes, in 100 μl of proliferation media. MBP ([…]) was added to the culture in a volume of 20 μl. Experiments were performed in triplicate in round bottomed 96-well plates (Costar, Cambridge, Mass.). Cells were cultured for 72 hours at 37° C. in an incubator with humidified 6% CO2 and 94% air atmosphere, and each well was pulsed with 1 μCi of ^3H thymidine for the last 18 hours of culture. Cultures were harvested onto fiberglass filters using a multiharvester and counted using standard liquid scintillation techniques. […]

The subject of assay [1] is DTH responses to MBP or OVA. As to the kind of experiment: Delayed type hypersensitivity (DTH) testing, Example 2. Type of assay: in vivo, Lewis rats. The protocol:
Delayed Type Hypersensitivity (DTH) Testing. DTH was tested by injecting 50 μg of MBP or OVA in PBS, subcutaneously into the ear. MBP was injected in the left ear and OVA in the right ear in the same animal. Thickness, in units of 0.01 inch, was measured in a blinded fashion, before and 48 hours after challenge, using micrometer calipers (Mitutoyo, Utsunomia, Japan). Change in ear thickness before and after challenge was recorded for each animal, and results were expressed as the mean for each experimental group ± SEM; each group consisted of five animals.

Assay [2] has as its system EAE. The assay can be described thus: In vivo bystander suppression of EAE (MBP/CFA plus secondary antigen). More on the design: species or system Lewis rats. The method, then:
Immunization Of Animals. Animals were immunized with 25 μg of MBP in the footpad, emulsified in an equal volume of CFA containing 4 mg/ml of Mycobacterium tuberculosis (Difco Labs, Detroit, Mich.) in order to induce a substantial EAE disease state. For in vivo bystander suppression experiments, 50-300 μg of the secondary antigens OVA, BSA or KLH were injected subcutaneously in the same footpad in 100 μl PBS 8 hours after primary immunization with MBP CFA.
Clinical Evaluation. Animals were evaluated in a blinded fashion every day for evidence of EAE in order to correlate the clinical manifestations of Bystander Suppression with the in vitro assays described below. Clinical severity of EAE was scored as follows: 0, no disease; 1, limp tail; 2, hind limb paralysis; 3, hind limb paraplegia, incontinence; 4, tetraplegia; 5, death. Mean maximal clinical severity was calculated as previously described for each experimental group (7). Statistical analysis was performed using a one-tailed student's t test and a chi square analysis for comparing incidence between groups.
Induction Of Oral Tolerance. Animals were fed 1 mg MBP, OVA, BSA or KLH dissolved in 1 ml PBS or PBS alone, by gastric intubation using an 18-gauge stainless steel animal feeding needle (Thomas Scientific, Swedesboro, N.J.). Animals were fed five times (total dose of 5 mg), at intervals of 2-3 days with the last feeding 2 days before immunization.

For another assay, the system named is MBP line. As to the kind of experiment: Transwell culture suppression of MBP T cell line. Particulars: MBP line + MBP. In kind it is cell-based, Lewis rats. The source says: (§1) Transwell Cultures. A dual chamber transwell culture system (Costar, Cambridge, Mass.), which is 24.5 mm in diameter and consists of two compartments separated by a semi-permeable polycarbonate membrane, with a pore size of 0.4 μm, was used. The two chambers are 1 mm apart, allowing cells to be coin-cubated in close proximity without direct cell-to-cell contact. To measure in vitro suppression of proliferative responses in transwell cultures, 5×10^4 MBP- or OVA-specific line cells, raised and maintained as previously described (Ben-Nun, A. et al., Eur. J. Immunol. 11:195, 1981), were cultured with 10^6 irradiated (2,500 rad) thymocytes, in 600 μl of proliferation media in the lower well. Spleen cells from orally tolerized rats or controls (fed BSA) were added to the upper well (5×10^5 cells in 200 μl). Spleen cells were removed 7-14 days after the last feeding, and a single cell suspension was prepared by pressing the spleens through a stainless steel mesh. MBP and OVA (50 μg/ml) were added in a volume of 20 μl. […] In some experiments, modulator cells were added in the lower well together with responder cells, and in these instances modulator cells were irradiated (1,250 rad) immediately before being placed in culture. Proliferation media consisted of RPMI 1640 (Gibco Laboratories, Grand Island, N.Y.) supplemented with […] 2-mercaptoethanol, 1% sodium pyruvate, 1% penicillin and streptomycin, 1% glutamine, 1% HEPES buffer, 1% nonessential amino acids, and 1% autologous serum. Each transwell was performed in quadruplicate. The transwells were incubated at 37° C. in a humidified 6% CO2 and 94% air atmosphere for 72 hours. After 54 hours of culture, each lower well was pulsed with 4 μCi of [^3H]thymidine and at 72 hours split and reseeded to three wells in a round-bottomed 96-well plate (Costar) for harvesting onto fiberglass filters and counting using standard liquid scintillation techniques. Percent suppression =100×(1−Δ A cpm responders cultured with modulators/Δ cpm of responders).

In assay [3] the test system is EAE. As to the kind of experiment: Adoptive transfer of disease suppression. Type of assay: in vivo, Lewis rats. Conditions: naive recipients immunized with MBP/CFA and given OVA subcutaneously; FIG. 9. The protocol:
Adoptive Transfer Of Disease Suppression. In order to monitor the adoptive transfer of disease suppression occurring during Bystander Suppression donor rats were fed either 1 mg MBP, OVA, or KLH, five times at 2 day intervals and killed 7-14 days after the final feeding. Spleen cells were harvested, and incubated in vitro with the homologous antigen (50 μg/ml) in proliferation medium, for 72 hours. Cells were injected intraperitoneally: 10^8 cells for whole spleen populations or 5-6×10^7 cells for CD8− or CD4-depleted populations. Recipient animals were irradiated (250 rad) before adoptive transfer, immunized with MBP/CFA 6 hours after adoptive transfer, and challenged 8 hours later with 50 μg OVA.

The next assay relates to TGF-β. The assay can be described thus: Measurement of TGF-β activity in serum-free culture supernatants of spleen cells. Type of assay: cell-based, Lewis rats. Conditions: spleen cells of fed animals stimulated in vitro with the fed antigen. The method, then:
Measurement Of TGF-β Activity In Serum-Free Culture Supernatants. Serum free culture supernatants were collected as previously described (Kehri, et al. J. Exp. Med. 163: 1037-1050, 1986; Wahl, et al. J. […] Thereafter cells were washed three times and resuspended in serum-free medium for the remainder of the 72 hour culture, collected, then frozen until assayed. Determination of TGF-β content and isoform type in supernatants was performed using a mink lung epithelial cell line (American Type Culture Collection, Bethesda, Md. #CCL-64) according to Danielpour et al. (supra), and confirmed by a Sandwich Enzyme Linked Immunosorbent Assay (SELISA) assay as previously described (Danielpour et al. Growth Factors 2: 61-71,1989). The percent active TGF-β was determined by assay without prior acid activation of the samples.

The subject of assay [4] is rheumatoid arthritis symptoms. The assay can be described thus: Oral collagen in humans with rheumatoid arthritis. Type of assay: in vivo. Particulars: 0.1-1.0 mg single dose daily. The source says:
The above animal models can be used to establish the utility of the present invention in mammals (including humans). […] All of these human trials were attempted based on animal data using the appropriate disease model.

Assay [5] concerns EAE. The assay can be described thus: I.V. tolerization with MBP and MBP peptides in EAE induced with whole guinea pig MBP. Type of assay: in vivo, SJL/J mice. Particulars: days 8 and 9 post immunization, FIG. 16. The source says:
FIG. 16 is a bar graph showing the effect of intravenous tolerization with MBP and disease inducing and non-inducing fragments thereof on induced EAE expression in SJL/J mice.
Finally, the suppression of EAE by I.V. tolerization with MBP and MBP peptides prior to disease expression (on days 8 and 9 post immunization) was examined.

In the next assay the test system is OVA (responder) line. The assay can be described thus: Transwell triggering of suppression by MBP peptides. Type of assay: cell-based, rats. Conditions: peptide added to modulator well with spleen cells of MBP-fed animals; FIG. 11.
Text: as §1
The Transwell System of Example 2 above was used to identify the epitopes present on guinea pig MBP which induce the release of TGF-β from suppressor T-cells.
Peptides corresponding to guinea pig MBP residue nos.

For a further assay, the system named is DTH responses. As to the kind of experiment: DTH responses in animals fed MBP or MBP peptides. Type of assay: in vivo, Lewis rats. Conditions: FIG. 15. The source says: Guinea pig MBP peptide 131-150 was ineffective in this case. Peptides were also fed with STI which prevents their breakdown by gastric juices and enhances their biological effect. DTH responses to whole MBP were suppressed by feeding MBP or any one of the MBP-peptides 21-40, or 71-90.

Assay [6] concerns EAE. The assay can be described thus: EAE induced by guinea pig MBP 71-90, feeding of MBP peptides. In kind it is in vivo, Lewis rats. Particulars: fed; FIG. 14. The method, then: The effects of feeding various peptides to Lewis rats induced for EAE by guinea pig MBP residue nos. 71-90 (the major immunodominant epitope of guinea pig MBP as shown in Example 3 above) were also studied.
EAE was induced by immunizing with 0.25 mg of guinea pig MBP amino acid residue nos 71-90 in Complete Freund's Adjuvant and the effect of feeding various guinea pig MBP peptides on EAE was examined.

For assay [7], the system named is MBP-primed lymphoid cells. The assay can be described thus: Proliferation of MBP-primed lymphoid cells in response to overlapping guinea pig MBP peptides. Type of assay: cell-based, rats. Conditions: lymph node cells triggered with MBP-peptides; FIG. 10. The source says: The disease-inducing fragments (autoimmune response epitopes) of MBP were first confirmed as follows: Overlapping peptides as detailed in FIG. 10, of guinea pig MBP were obtained from commercial sources or synthesized in accordance with well-known techniques, specifically using a commercial peptide synthesis apparatus (from Applied Biosystems) and following the manufacturer's instructions. Whole MBP was then fed to rats and lymph node cells from the orally tolerized animals were triggered with the MBP-peptides. The ability of the triggered cells to induce killer T-cells was then quantitatively determined by a proliferation assay also, as described in Examples 1 and 2, and by testing the ability of the proliferating cells to transfer the disease.

Where [8] appears, read: OVA-fed modulators + OVA in upper well.
[9] abbreviates: OVA-fed modulators in upper well without OVA.

`COc1ccc2c(c1)c(CC(=O)O)c(C)n2C(=O)c1ccc(Cl)cc1` [indomethacin]: the “effect on suppression mediated by the supernatants” value in the assay with MBP specific T-cells is on record as “No effect on suppression”.

On to OVA: Ovalbumin purchased from Sigma, for which the “DTH response to OVA” value in assay [1] (OVA fed, OVA subcutaneously in association with MBP/CFA) is given as “did not generate an immune response to OVA”. Moreover, in assay [1] (fed antigen, then immunized with MBP/CFA plus OVA, FIG. 7), the “DTH responses to MBP” value is recorded as “Suppressed DTH responses to MBP”. Further, the disease severity in the assay with EAE [2] (OVA fed (1 mg, five times) plus OVA given subcutaneously after MBP/CFA, FIG. 6B) is 0.9±0.2; in the assay with EAE [2] (OVA fed and KLH given subcutaneously (control group), FIG. 6B), 3.9±0.1; with EAE [2] (animals fed OVA in whom KLH was given after MBP/CFA plus OVA subcutaneously, FIG. 6C, two values 'respectively'), 3.7±0.1 and 3.8±0.2. The “dose of secondary antigen given subcutaneously at which suppression of EAE occurred” value in the assay on EAE [2] (fed antigen, same antigen subcutaneously after MBP/CFA) came to 50 µg. Besides, the “mean maximal clinical disease severity” value with EAE [2] (not fed, OVA given subcutaneously in footpad 8 hours after MBP/CFA, FIG. 6A) is 3.8±0.1. Also, the “Percent Suppression” value with MBP line (setting [8]) is 47%; with MBP line (setting [9]) it was 6%. The Δ cpm in the assay on MBP line (setting [8]) is reported as 37,778 ± 3,780 cpm; with MBP line (setting [9]), 67,075 ± 2,904 cpm. The “adoptive transfer of protection by spleen cells from fed animals” value in the assay with EAE [3] is on record as “adoptively transferred protection”. Besides, in the assay with TGF-β, the “TGF-β in the active form” value stood at 65±9%. For the same molecule, the “amount of TGF-β” value in the assay with TGF-β (serum-free) was found to be 6.1 ± 1.0 ng/mL.

collagen: the “rheumatoid arthritis symptoms (joint tenderness, AM stiffness, grip strength)” value in assay [4] is “successfully suppressed”.

For the molecule “guinea pig MBP 71-90: peptide spanning residue 71-90 of guinea pig MBP, the immunodominant epitope (SLPQKSQRSQDENPVVHFFK; UniProt P25188 71-90, looked up, fragment)”, in the assay on EAE [5], the “suppression of EAE induced with whole guinea pig MBP” value is “effective in suppressing EAE”. Moreover, the “triggering suppression of proliferation in the transwell system” value in the assay on OVA (responder) line was “ineffective in triggering suppression”. Also, in the assay on DTH responses, the “DTH responses to guinea pig MBP peptide 71-90” value is listed as “suppressed” and the “DTH responses to whole MBP” value was “suppressed”. Also, in the assay with EAE [6], the “down-regulation of EAE induced by guinea pig MBP 71-90” value is given as “equally effective in down-regulating EAE”. Besides, the “induction of killer T-cells (proliferation)” value in assay [7] is “by far the most efficient inducer of killer T-cells”.

For the origin of these results see patent US6645504B1, “Bystander suppression of type I diabetes by oral administration of glucagon” (AutoImmune Inc., priority 1987, dated 2003).
